Laboratory results: ChEMBL document CHEMBL1201862, “PubChem BioAssay data set” (2004)
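Results reflect a 48-hour exposure of cells in 96-well plates to compound at five concentrations. GI50: concentration for 50% inhibition of growth.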 Active and inactive are the calls of the source. Cut-off read from the data, not from the text of the source: active = GI50 up to about 1.1 µM and inactive = higher.

Assays:
Assay in all cases: inhibition of tumour cell growth, NCI panel, 48 h
A549 = system: A549
HCT-15 = system: HCT-15
HOP-62 = system: HOP-62
HT-29 = system: HT-29
IGROV-1 = system: IGROV-1
KM12 = system: KM12
M14 = system: M14
Malme-3M = system: Malme-3M
OVCAR-8 = system: OVCAR-8
RPMI-8226 = system: RPMI-8226
RXF 393 = system: RXF 393
SF-539 = system: SF-539
SK-MEL-5 = system: SK-MEL-5
SK-OV-3 = system: SK-OV-3
SNB-75 = system: SNB-75
SR = system: SR
TK-10 = system: TK-10
U-251 = system: U-251

| SMILES | GI50 (A549) | GI50 (HCT-15) [µM] | GI50 (HOP-62) | GI50 (HT-29) | GI50 (IGROV-1) | GI50 (KM12) | GI50 (M14) | GI50 (Malme-3M) | GI50 (OVCAR-8) | GI50 (RPMI-8226) | GI50 (RXF 393) | GI50 (SF-539) | GI50 (SK-MEL-5) | GI50 (SK-OV-3) | GI50 (SNB-75) | GI50 (SR) | GI50 (TK-10) | GI50 (U-251) |
| --- | --- | --- | --- | --- | --- | --- | --- | --- | --- | --- | --- | --- | --- | --- | --- | --- | --- | --- |
| C/C(=C1/N=C(c2cc([N+](=O)[O-])ccc2Cl)N(c2ccc(Br)cc2)C1=O)c1ccc(N(CCC#N)CCC#N)cc1C | 22.5 µM (inactive) | 16.4 | 19.8 µM (inactive) | 36.9 µM (inactive) | 28.4 µM (inactive) | 15.1 µM (inactive) | 13.6 µM (inactive) | 77.8 µM (inactive) | 43.5 µM (inactive) | 28.1 µM (inactive) | 16.8 µM (inactive) | 52.2 µM (inactive) | 13.7 µM (inactive) | > 100 µM (inactive) | > 100 µM (inactive) | 7.98 µM (inactive) | 68.2 µM (inactive) |  |
| C[N+](C)(C)CC(=O)N/N=C(/Cc1nc2ccc([N+](=O)[O-])cc2nc1O)C(=O)Nc1cc(C(F)(F)F)ccc1Cl | > 100 µM (inactive) |  | > 100 µM (inactive) | > 100 µM (inactive) | > 100 µM (inactive) | > 100 µM (inactive) | > 100 µM (inactive) | > 100 µM (inactive) | > 100 µM (inactive) | 63.1 µM (inactive) | > 100 µM (inactive) | > 100 µM (inactive) | > 100 µM (inactive) | > 100 µM (inactive) |  | > 100 µM (inactive) | > 100 µM (inactive) |  |
| Cc1no[n+]([O-])c1/C=N/NS(=O)(=O)c1ccccc1 | > 100 µM (inactive) | > 100 | > 100 µM (inactive) | > 100 µM (inactive) | > 100 µM (inactive) | > 100 µM (inactive) | > 100 µM (inactive) | > 100 µM (inactive) | > 100 µM (inactive) | > 100 µM (inactive) | > 100 µM (inactive) | > 100 µM (inactive) | > 100 µM (inactive) | > 100 µM (inactive) |  | > 100 µM (inactive) | > 100 µM (inactive) | > 100 µM (inactive) |
| O=c1c(-c2cccc3ccccc23)c(-c2cccc3ccccc23)c1=O | 0.741 µM (active) | 2.42 | 3.57 µM (inactive) | 0.35 µM (active) | 2.6 µM (inactive) | 0.608 µM (active) | 2.24 µM (inactive) | 2.18 µM (inactive) | 2.81 µM (inactive) | 0.736 µM (active) | 4.69 µM (inactive) | 1.38 µM (inactive) | 3 µM (inactive) | 10.8 µM (inactive) | 0.2 µM (active) | 1.43 µM (inactive) | 15.1 µM (inactive) | 3.31 µM (inactive) |
| COC(=O)CC(NC(=O)OCc1ccccc1)C(C(=O)OCc1ccccc1)C1(C)OCCO1 (stereo unspecified) | 32.4 µM (inactive) | 37.8 | 47.5 µM (inactive) | 53.6 µM (inactive) | 40 µM (inactive) |  | 40.7 µM (inactive) | 33.3 µM (inactive) | 25.2 µM (inactive) | 22.1 µM (inactive) | 21.4 µM (inactive) | 54.6 µM (inactive) | 17.5 µM (inactive) |  | 23.6 µM (inactive) | 19.1 µM (inactive) | 57.1 µM (inactive) | 33.1 µM (inactive) |
| CC1(O)C(C)(O)C2(C)O[Te]3(OC12C)OC1(C)C(C)(O)C(C)(O)C1(C)O3 (stereo unspecified) | 6.67 µM (inactive) | 11.5 | > 100 µM (inactive) | 27.3 µM (inactive) | 12.3 µM (inactive) | 23.7 µM (inactive) | > 100 µM (inactive) | 96.2 µM (inactive) | 16.1 µM (inactive) | 15.5 µM (inactive) | 12.4 µM (inactive) | 29.1 µM (inactive) | 15 µM (inactive) | > 10 µM (inactive) | > 100 µM (inactive) | 17.2 µM (inactive) | 23.1 µM (inactive) | 10.8 µM (inactive) |
